Experimental data: US7618796B2, “Peptide-forming enzyme gene, peptide-forming enzyme, and peptide producing method” (Ajinomoto Co., Inc., priority 2001, dated 2009)
Like-named read-outs stand apart in the source and are kept apart here. Residues, ends and D or L forms follow the SMILES beside them.

Legend:
[1] = tested on: Pseudomonas putida strain FERM BP-8101; settings: substrate solution with 20 mM EDTA, 200 mM L-alanine ethyl ester hydrochloride, 400 mM L-glutamine, pH 9.0, 1 hour, 30° C.; 4.9 mM with no EDTA
Source text: However, the present invention is not limited to these examples.

[2] = tested on: proline iminopeptidase of Pseudomonas putida strain FERM BP-8123; test: Effect of inhibitors on L-alanyl-L-glutamine synthesis; assay type: biochemical; settings: 1 mM inhibitor, 30 minutes, 30° C.
[3] = tested on: proline iminopeptidase of Pseudomonas putida strain ATCC 12633; test: as above; assay type: biochemical; settings: 1 mM inhibitor, 30 minutes, 30° C.
Method: The effects of inhibitors on acquired proline iminopeptidase were investigated. The enzyme reaction was carried out for 30 minutes at 30° C. with a reaction solution consisting of 0.1 M borate buffer (pH 9.0), 10 mM EDTA, 100 mM L-alanine methyl ester hydrochloride, 150 mM L-glutamine and 1 mM inhibitor, followed by measurement of L-alanyl-L-glutamine synthesis. […] The activity was not affected by any of the inhibitors investigated for Corynebacterium glutamicum strain ATCC 13286.

[4] = target: proline iminopeptidase of Bacillus coagulans strain EK01 (Heyndrickxia coagulans, UniProt P46541); test: as above; assay type: biochemical; settings: 1 mM inhibitor, 30 minutes, 30° C.
[5] = tested on: Pseudomonas putida strain FERM BP-8101; test: Dipeptide production from test L-alanine esters / L-amino acids by cell suspension; assay type: cell-based; settings: 20 mM EDTA, pH 9.0, 1 hour, 30° C.; for L-alanyl-L-glutamine produced: test L-alanine ester hydrochloride 200 mM with L-glutamine 400 mM; for L-alanyl dipeptide produced: L-alanine methyl ester hydrochloride 200 mM with test L-amino acid 400 mM
Method: Note that in the examples, quantitative determination of L-alanine, L-alanyl-L-glutamine or L-alanyl-L-asparagine was carried out by a method using high performance liquid chromatography (column: Inertsil ODS-2 (GL Science), eluate: aqueous phosphate solution (pH 2.2, 5.0 mM sodium 1-octane sulfonate/methanol=100/15), flow rate: 1.0 mL/min, detection: 210 nm).

[6] = tested on: His-Tag purified peptide-forming enzyme of Corynebacterium glutamicum strain ATCC 13286; test: Study of substrate specificity using His-Tag purified enzyme; assay type: biochemical; settings: 25° C.; for quantity of L-alanyl dipeptide produced from L-alanine methyl ester and test amino acid: 100 mM L-alanine methyl ester hydrochloride, 150 mM test amino acid; for quantity of L-alanyl dipeptide produced from L-alanine methyl ester and test amino acid / quantity of dipeptide produced from test amino acid methyl ester and L-glutamine: enzyme 0.05 U/ml, pH 9.0, 3 hours; for quantity of dipeptide produced from test amino acid methyl ester and L-glutamine / production of peptide of the corresponding amino acid and L-glutamine (not quantified): 100 mM test amino acid methyl ester, 150 mM L-glutamine; for production of peptide of the corresponding amino acid and L-glutamine (not quantified): 3 hours, no standard preparation
Source text: The synthesis of peptides other than the L-alanyl-L-glutamine by the acquired peptide-forming enzyme was studied using His-Tag purified enzyme. […]

[7] = tested on: peptide-forming enzyme purified from Corynebacterium glutamicum strain ATCC 13286; test: Dipeptide production by enzyme purified from Corynebacterium glutamicum; assay type: biochemical; settings: 100 mM L-alanine methyl ester hydrochloride with 200 mM test L-amino acid, 2 units enzyme, 10 mM EDTA, pH 9.0, 4 hours, 30° C.
Method: This purified enzyme was then added to borate buffer (pH 9.0) containing EDTA, L-alanine methyl ester hydrochloride and L-glutamine (or L-asparagine), mixed to the total volume of 1 mL (for the final concentrations, the amount of enzyme added was 2 units as alanine amide decomposition activity, EDTA was at 10 mM, L-alanine methyl ester hydrochloride was at 100 mM and L-glutamine (or L-asparagine) was at 200 mM borate buffer at 100 mM), and allowed to react for 4 hours at 30° C.

[8] = Enzyme titer: L-alanine amide decomposition activity; assay type: biochemical; settings: Tris-HCl pH 9.0, 60 minutes, 30° C.
Method: The specific activity of the purified enzyme was 9.841 U/mg, and the specific activity of the purified peptide-forming enzyme was increased about 246-fold as a result of going through these purification steps. In addition, as a result of applying the molecular weight of the purified enzyme standard to SDS polyacrylamide electrophoresis, a uniform band was detected at the position calculated to represent a molecular weight of 42,000 to 46,000. Measurement of enzyme titer was carried out as described below. 200 μM of Tris-HCl buffer (pH 9.0), 50 μM of L-alanine amide and a suitable amount of enzyme liquid were added and mixed to a final volume 1 mL, and after allowing to react for 60 minutes at 30° C., 4 mL of aqueous phosphoric acid (pH 2.1) was added to stop the reaction. The alanine produced was quantified by high-performance liquid chromatography, and the amount of enzyme that produces 1 μM of L-alanine in 1 minute was defined as 1 unit.

proline iminopeptidase of Bacillus coagulans strain EK01, sequence (P46541 whole entry): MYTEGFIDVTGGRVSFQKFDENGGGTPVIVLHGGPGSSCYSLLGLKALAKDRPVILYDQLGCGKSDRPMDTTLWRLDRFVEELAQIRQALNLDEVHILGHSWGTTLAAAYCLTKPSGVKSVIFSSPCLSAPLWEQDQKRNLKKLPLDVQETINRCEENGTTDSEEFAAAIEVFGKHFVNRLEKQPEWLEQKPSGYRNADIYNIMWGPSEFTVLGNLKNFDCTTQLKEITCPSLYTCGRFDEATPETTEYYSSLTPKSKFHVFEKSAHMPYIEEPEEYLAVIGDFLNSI

## O=C(O)CN(CCN(CC(=O)O)CC(=O)O)CC(=O)O [EDTA, ethylenediaminetetraacetic acid]
[1]
  L-alanyl-L-glutamine produced: 10.1 mM

## NC(=O)CI [IAA, iodoacetoamide]
[2]
  effect on enzyme activity: decreased to certain extents
[3]
  effect on enzyme activity: decreased to certain extents
[4]
  effect on enzyme activity: decreased to certain extents

## CCOC(=O)[C@H](C)N.Cl [L-alanine ethyl ester hydrochloride]
[5]
  L-alanyl-L-glutamine produced: 11.4 mM

## COC(=O)[C@H](C)N.Cl [L-alanine methyl ester hydrochloride]
[5]
  L-alanyl-L-glutamine produced: 14.9 mM

## C[C@H](N)C(=O)OC(C)(C)C.Cl [L-alanine-tert-butyl ester hydrochloride]
[5]
  L-alanyl-L-glutamine produced: 0.5 mM

## C[C@H](N)C(=O)O [L-alanine]
[6]
  quantity of L-alanyl dipeptide produced from L-alanine methyl ester and test amino acid: 10.63 mM

## COC(=O)[C@@H](N)CCCNC(=N)N [L-arginine methyl ester]
[6]
  quantity of dipeptide produced from test amino acid methyl ester and L-glutamine: 6.52 mM

## N=C(N)NCCC[C@H](N)C(=O)O [L-arginine]
[6]
  quantity of L-alanyl dipeptide produced from L-alanine methyl ester and test amino acid: 24.87 mM

## COC(=O)[C@@H](N)CC(N)=O [L-asparagine methyl ester]
[6]
  production of peptide of the corresponding amino acid and L-glutamine (not quantified): confirmed to be produced

## NC(=O)C[C@H](N)C(=O)O [L-asparagine]
[7]
  amount of L-alanyl dipeptide produced: 49.8 mM
[6]
  quantity of L-alanyl dipeptide produced from L-alanine methyl ester and test amino acid: 22.34 mM
[5]
  L-alanyl dipeptide produced: 4.8 mM

## COC(=O)C[C@H](N)C(=O)OC [L-aspartic acid-α,β-dimethyl ester]
[6]
  production of peptide of the corresponding amino acid and L-glutamine (not quantified): confirmed to be produced

## COC(=O)[C@@H](N)CC(=O)O [L-aspartic acid-α-methyl ester]
[6]
  quantity of dipeptide produced from test amino acid methyl ester and L-glutamine: 8.22 mM

## COC(=O)C[C@H](N)C(=O)O [L-aspartic acid-β-methyl ester]
[6]
  production of peptide of the corresponding amino acid and L-glutamine (not quantified): confirmed to be produced

## N[C@@H](CCC(=O)O)C(=O)O [L-glutamate]
[6]
  quantity of L-alanyl dipeptide produced from L-alanine methyl ester and test amino acid: 1.11 mM

## COC(=O)CC[C@H](N)C(=O)O [L-glutamic acid-γ-methyl ester]
[6]
  production of peptide of the corresponding amino acid and L-glutamine (not quantified): confirmed to be produced

## COC(=O)[C@@H](N)CCC(N)=O [L-glutamine methyl ester]
[6]
  quantity of dipeptide produced from test amino acid methyl ester and L-glutamine: 0.23 mM

## NC(=O)CC[C@H](N)C(=O)O [L-glutamine]
[7]
  amount of L-alanyl dipeptide produced: 50.2 mM
[5]
  L-alanyl dipeptide produced: 12.7 mM

## N[C@@H](Cc1c[nH]cn1)C(=O)O [L-histidine]
[6]
  quantity of L-alanyl dipeptide produced from L-alanine methyl ester and test amino acid: 23.16 mM

## CC[C@H](C)[C@H](N)C(=O)N[C@@H](CCC(N)=O)C(=O)O [L-isoleucyl-L-glutamine] (H-Ile-Gln-OH)
[6]
  quantity of dipeptide produced from test amino acid methyl ester and L-glutamine: 0.59 mM

## COC(=O)[C@@H](N)CC(C)C [L-leucine methyl ester]
[6]
  production of peptide of the corresponding amino acid and L-glutamine (not quantified): confirmed to be produced

## CC(C)C[C@H](N)C(=O)O [L-leucine]
[6]
  quantity of L-alanyl dipeptide produced from L-alanine methyl ester and test amino acid: 13.73 mM

## COC(=O)[C@@H](N)CCCCN [L-lysine methyl ester]
[6]
  production of peptide of the corresponding amino acid and L-glutamine (not quantified): confirmed to be produced

## NCCCC[C@H](N)C(=O)O [L-lysine]
[6]
  quantity of L-alanyl dipeptide produced from L-alanine methyl ester and test amino acid: 7.91 mM

## COC(=O)[C@@H](N)CCSC [L-methionine methyl ester]
[6]
  quantity of dipeptide produced from test amino acid methyl ester and L-glutamine: 4.31 mM

## CSCC[C@H](N)C(=O)O [L-methionine]
[6]
  quantity of L-alanyl dipeptide produced from L-alanine methyl ester and test amino acid: 48.80 mM

## N[C@@H](Cc1ccccc1)C(=O)O [L-phenylalanine]
[6]
  quantity of L-alanyl dipeptide produced from L-alanine methyl ester and test amino acid: 16.13 mM

## O=C(O)[C@@H]1CCCN1 [L-proline]
[6]
  quantity of L-alanyl dipeptide produced from L-alanine methyl ester and test amino acid: 1.02 mM

## COC(=O)[C@@H](N)CO [L-serine methyl ester]
[6]
  quantity of dipeptide produced from test amino acid methyl ester and L-glutamine: 40.44 mM

## N[C@@H](CO)C(=O)O [L-serine]
[6]
  quantity of L-alanyl dipeptide produced from L-alanine methyl ester and test amino acid: 26.14 mM

## COC(=O)[C@@H](N)[C@@H](C)O [L-threonine methyl ester]
[6]
  quantity of dipeptide produced from test amino acid methyl ester and L-glutamine: 3.85 mM

## C[C@@H](O)[C@H](N)C(=O)O [L-threonine]
[6]
  quantity of L-alanyl dipeptide produced from L-alanine methyl ester and test amino acid: 24.23 mM

## N[C@@H](Cc1c[nH]c2ccccc12)C(=O)O [L-tryptophan]
[6]
  quantity of L-alanyl dipeptide produced from L-alanine methyl ester and test amino acid: 15.31 mM

## COC(=O)[C@@H](N)Cc1ccc(O)cc1 [L-tyrosine methyl ester]
[6]
  quantity of dipeptide produced from test amino acid methyl ester and L-glutamine: 1.24 mM

## N[C@@H](Cc1ccc(O)cc1)C(=O)O [L-tyrosine]
[6]
  quantity of L-alanyl dipeptide produced from L-alanine methyl ester and test amino acid: 0.96 mM

## COC(=O)[C@@H](N)C(C)C [L-valine methyl ester]
[6]
  quantity of dipeptide produced from test amino acid methyl ester and L-glutamine: 5.94 mM

## CCN1C(=O)C=CC1=O [NEM, N-ethylmaleimide]
[2]
  effect on enzyme activity: nearly completely inhibited
[3]
  effect on enzyme activity: nearly completely inhibited
[4]
  effect on enzyme activity: nearly completely inhibited

## O=S(=O)(F)Cc1ccccc1 [PMSF, phenyl methyl sulfonyl fluoride]
[2]
  effect on enzyme activity: did not have an effect
[3]
  effect on enzyme activity: did not have an effect
[4]
  effect on enzyme activity: did not have an effect

## COC(=O)CN [glycine methyl ester]
[6]
  quantity of dipeptide produced from test amino acid methyl ester and L-glutamine: 52.19 mM

## NCC(=O)O [glycine]
[6]
  quantity of L-alanyl dipeptide produced from L-alanine methyl ester and test amino acid: 5.66 mM

## peptide-forming enzyme purified from Corynebacterium glutamicum strain ATCC 13286: native enzyme purified to uniformity; amino acid sequence SEQ ID NO: 5
[8]
  specific activity (L-alanine amide decomposition): 9.841 U/mg
